In patent US20080167330A1, “Carbamoylsulphoximides as protein kinase inhibitors” (priority 2006, published 2008):

How the values were obtained:
Assay type in all cases: biochemical
human Aurora-C = molecular target: T1, human Aurora-C (Homo sapiens, UniProt Q9UQB9); test: Aurora-C kinase assay (HTRF); details: 10 μM ATP
T1 construct: GST; made in house; host or cells: transiently transfected HEK293 cells
T1 sequence (Q9UQB9 1-309): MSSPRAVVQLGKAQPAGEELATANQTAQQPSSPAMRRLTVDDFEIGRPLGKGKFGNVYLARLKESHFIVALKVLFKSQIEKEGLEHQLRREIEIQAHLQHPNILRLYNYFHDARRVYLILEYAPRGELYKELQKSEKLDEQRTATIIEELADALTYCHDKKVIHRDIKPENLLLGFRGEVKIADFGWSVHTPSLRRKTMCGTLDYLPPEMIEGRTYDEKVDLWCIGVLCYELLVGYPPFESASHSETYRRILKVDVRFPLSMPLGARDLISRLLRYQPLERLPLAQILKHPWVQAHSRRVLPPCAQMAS
Protocol: The Aurora-C inhibitory activity of the substances of this invention was measured in the Aurora-C-HTRF assay (HTRF=Homogeneous Time Resolved Fluorescence) described in the following paragraphs.
Recombinant fusion protein of GST and human Aurora-C was expressed in transiently transfected HEK293 cells and purified by affinity chromatography on glutathione-Sepharose. The substrate used for the kinase reaction was the biotinylated peptide biotin-Ttds-FMRLRRLSTKYRT (C terminus in amide form) which can be purchased for example from JERINI Peptide Technologies (Berlin). Aurora-C was incubated in the presence of various concentrations of test substances in 5 μL of assay buffer [25 mM Hepes/NaOH pH 7.4, 0.5 mM MnCl2, 2.0 mM dithiothreitol, 0.1 mM sodium orthovanadate, 10 μM adenosine triphosphate (ATP), […] substrate, 0.01% (v/v) TritonX-100 (Sigma), 0.05% (w/v) bovine serum albumin (BSA), 1% (v/v) dimethyl sulphoxide] at 22° C. for 60 min. The concentration of Aurora-C was adapted to the particular activity of the enzyme and adjusted so that the assay operated in the linear range. Typical concentrations were in the region of 0.3 nM. The reaction was stopped by adding 5 μl of a solution of HTRF detection reagents (0.2 μM streptavidin-XLent and 1.4 nM anti-phospho-(Ser/Thr)-Akt substrate-Eu-cryptate (Cis biointernational, France, product No. 61P02KAE), a Europium-cryptate-labelled phospho-(Ser/Thr)-Akt substrate antibody [product #9611B, Cell Signaling Technology, Danvers, Mass., USA]) in aqueous EDTA solution (40 mM EDTA, 400 mM KF, 0.05% (w/v) bovine serum albumin (BSA) in 25 mM HEPES/NaOH pH 7.0).
The resulting mixture was incubated at 22° C. for 1 h in order to allow formation of a complex of the biotinylated phosphorylated substrate and the detection reagents. The amount of phosphorylated substrate was then estimated by measuring the resonance energy transfer from the anti-phospho-(Ser/Thr)-Akt substrate-Eu cryptate to the streptavidin-XLent. For this purpose, the fluorescence emissions at 620 nm and 665 nm after excitation at 350 nm were measured in an HTRF measuring instrument, e.g. a Rubystar (BMG Labtechnologies, Offenburg, Germany) or a Viewlux (Perkin-Elmer). The ratio of the emissions at 665 nm and at 622 nm was taken as a measure of the amount of phosphorylated substrate. The data were normalized (enzymic reaction without inhibitor=0% inhibition, all other assay components but no enzyme=100% inhibition) and IC50 values were calculated with a 4-parameter fit using an inhouse software.

CDK1/CycB = molecular target: T2, CDK1/CycB (Homo sapiens, UniProt P06493); test: CDK1/CycB kinase assay; details: 0.5 μM ATP
T2 construct: GST; purchased ProQinase GmbH, Freiburg; host or cells: baculovirus-infected insect cells (Sf9)
Protocol: Recombinant CDK1- and CycB-GST fusion proteins, purified from baculovirus-infected insect cells (Sf9), were purchased from ProQinase GmbH, Freiburg. The histone IIIS used as kinase substrate can be purchased from Sigma.
CDK1/CycB (5 ng/μL) was incubated in the presence of various concentrations of test substances (0 μM, and within the range 0.01-100 μM) in 40 μL of assay buffer [50 mM Tris/HCl pH 8.0, 10 mM MgCl2, 0.1 mM Na ortho-vanadate, 1.0 mM dithiothreitol, 0.025% PEG 20000, 0.5 μM ATP, 10 μM histone IIIS, 0.2 μCi/measurement point ^33P-gamma ATP, 0.05% NP40, 1.25% dimethyl sulphoxide] at 22° C. for 10 min. The reaction was stopped by adding EDTA solution (250 mM, pH 8.0, 15 μl/measurement point). 15 μl of each reaction mixture were loaded onto P30 filter strips (from Wallac), and non-incorporated ^33P-ATP was removed by washing the filter strips three times in 0.5% strength phosphoric acid for 10 min each time. After the filter strips had been dried at 70° C. for 1 hour, the filter strips were covered with scintillator strips (MeltiLex™ A, from Wallac) and baked at 90° C. for 1 hour. The amount of incorporated ^33P (substrate phosphorylation) was determined by scintillation measurement in a gamma radiation counter (Wallac).
(§1) The measured data were normalized to 0% inhibition (enzyme reaction without inhibitor) and 100% inhibition (all assay components except enzyme). The IC50 values were determined by means of a 4-parameter fit using the company's own software.

CDK2/CycE = molecular target: T3, CDK2/CycE (Homo sapiens, UniProt P24941); test: CDK2/CycE kinase assay; details: 0.5 μM ATP
T3 construct: GST; purchased ProQinase GmbH, Freiburg; host or cells: baculovirus-infected insect cells (Sf9)
Protocol: Recombinant CDK2- and CycE-GST fusion proteins, purified from baculovirus-infected insect cells (Sf9), were purchased from ProQinase GmbH, Freiburg. The histone IIIS used as kinase substrate was purchased from Sigma. CDK2/CycE (1.25 ng/μL) was incubated in the presence of various concentrations of test substances (0 μM, and within the range 0.01-100 μM) in 40 μL of assay buffer [50 mM Tris/HCl pH 8.0, 10 mM MgCl2, 0.1 mM Na ortho-vanadate, 1.0 mM dithiothreitol, 0.5 μM ATP, 0.2% PEG20000, 10 μM histone IIIS, 0.2 μCi/measurement point ^33P-gamma ATP, 0.05% NP40, 1.25% dimethyl sulphoxide] at 22° C. for 10 min. The reaction was stopped by adding EDTA solution (250 mM, pH 8.0, 15 μl/measurement point).
15 μl of each reaction mixture were loaded onto P30 filter strips (from Wallac), and non-incorporated ^33P-ATP was removed by washing the filter strips three times in 0.5% strength phosphoric acid for 10 min each time.
(§2) After the filter strips had been dried at 70° C. for 1 hour, the filter strips were covered with scintillator strips (MeltiLex™ A, from Wallac) and baked at 90° C. for 1 hour. The amount of incorporated ^33P (substrate phosphorylation) was determined by scintillation measurement in a gamma radiation counter (Wallac).
as §1

KDR (VEGFR2) = molecular target: T4, KDR (VEGFR2) (Homo sapiens, UniProt P35968); test: KDR kinase assay; details: 8 μM ATP
T4 construct: GST; purchased ProQinase GmbH, Freiburg; host or cells: baculovirus-infected insect cells (Sf9)
Protocol: Recombinant KDR kinase-GST fusion proteins purified from baculovirus-infected insect cells (Sf9), were purchased from ProQinase GmbH, Freiburg. Poly(Glu4Tyr)n, which was used as kinase substrate, was purchased from Sigma.
KDR kinase was incubated in the presence of various concentrations of test substances (0 μM, and within the range 0.01-100 μM) in 40 μL of assay buffer [40 mM Tris/HCl pH 7.5, 10 mM MgCl2, 1 mM MnCl2, 1.0 mM dithiothreitol, 8 μM ATP, 0.025% PEG20000, 24 ng/μL poly(Glu4Tyr)n, 0.2 μCi/measurement point ^33P-gamma ATP, 1.25% dimethyl sulphoxide] at 22° C. for 10 min. The reaction was stopped by adding EDTA solution (250 mM, pH 7.5, 15 μl/measurement point). 15 μl of each reaction mixture were loaded onto P30 filter strips (from Wallac), and non-incorporated ^33P-ATP was removed by washing the filter strips three times in 0.5% strength phosphoric acid for 10 min each time.
as §2, §1

[1] = test system: Aurora C, CDK1/CycB, CDK2/CycE, KDR (VEGFR2); test: various kinase assays taken together (selectivity profile); details: comparison across the kinase assays, in words
Protocol: The compounds of Examples 1 to 22 were tested for their inhibitory effect in the various kinase assays and in a proliferation assay with MCF7 human breast tumour cells (Tab. 1). […] Exemplary compounds 1-8, 10-12, 15, 17-20 inhibit the proliferation of human MCF7 breast tumour cells with half-maximum concentrations in the submicromolar range.

T4 sequence (P35968 807-1356 limits assumed): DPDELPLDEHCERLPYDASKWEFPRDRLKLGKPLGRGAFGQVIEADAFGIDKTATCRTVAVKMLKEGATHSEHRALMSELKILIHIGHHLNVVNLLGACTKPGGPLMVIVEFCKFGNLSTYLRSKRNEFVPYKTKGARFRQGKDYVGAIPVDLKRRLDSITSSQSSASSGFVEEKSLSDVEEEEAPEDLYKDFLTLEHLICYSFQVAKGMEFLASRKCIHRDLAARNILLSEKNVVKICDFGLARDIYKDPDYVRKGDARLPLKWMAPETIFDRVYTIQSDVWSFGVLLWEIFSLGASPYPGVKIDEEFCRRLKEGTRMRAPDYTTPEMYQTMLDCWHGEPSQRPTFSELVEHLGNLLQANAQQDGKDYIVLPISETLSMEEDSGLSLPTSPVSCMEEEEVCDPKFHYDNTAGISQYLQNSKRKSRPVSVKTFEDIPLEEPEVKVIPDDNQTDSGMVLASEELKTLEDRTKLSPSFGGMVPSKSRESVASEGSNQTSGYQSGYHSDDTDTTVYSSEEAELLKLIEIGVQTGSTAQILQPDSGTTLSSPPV
T2 sequence (P06493 whole entry): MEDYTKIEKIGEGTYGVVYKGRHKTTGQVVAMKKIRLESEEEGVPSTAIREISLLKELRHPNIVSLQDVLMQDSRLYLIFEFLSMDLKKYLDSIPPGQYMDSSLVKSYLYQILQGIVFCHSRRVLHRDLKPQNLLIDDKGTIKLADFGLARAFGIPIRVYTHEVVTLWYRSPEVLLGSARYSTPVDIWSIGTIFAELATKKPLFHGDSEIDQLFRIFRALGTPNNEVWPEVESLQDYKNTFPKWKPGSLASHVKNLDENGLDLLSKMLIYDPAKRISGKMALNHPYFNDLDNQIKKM
T2 sequence (P14635 whole entry partner): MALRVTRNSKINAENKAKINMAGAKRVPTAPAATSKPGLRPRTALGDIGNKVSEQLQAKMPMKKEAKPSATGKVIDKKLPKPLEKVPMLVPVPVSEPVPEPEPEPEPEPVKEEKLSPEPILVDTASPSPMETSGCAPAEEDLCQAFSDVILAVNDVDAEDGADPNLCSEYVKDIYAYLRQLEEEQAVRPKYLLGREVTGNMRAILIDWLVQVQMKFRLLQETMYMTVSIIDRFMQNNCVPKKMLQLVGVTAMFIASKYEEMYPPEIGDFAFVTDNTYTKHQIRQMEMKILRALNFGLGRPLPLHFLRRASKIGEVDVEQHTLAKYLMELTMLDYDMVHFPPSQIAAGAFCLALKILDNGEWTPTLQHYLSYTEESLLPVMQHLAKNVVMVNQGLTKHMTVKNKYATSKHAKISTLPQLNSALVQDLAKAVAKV

IC50 (human Aurora-C): 20 µM
IC50 (CDK1/CycB): 0.18 µM
IC50 (CDK2/CycE): 0.043 µM
IC50 (KDR (VEGFR2)): > 1 µM
selectivity profile [1]: CDK-selective
Compound: Cc1c(NC(=O)N=S(C)(C)=O)cccc1Nc1ncc(Br)c(N[C@H](C)[C@@H](C)O)n1 [Example 9, N-({3-[(5-Bromo-4-{[(1R,2R)-2-hydroxy-1-methylpropyl]amino}pyrimidin-2-yl)amino]-2-methylphenyl)carbamoyl)-S,S-dimethylsulphoximide]
